We go through one molecule from USRE46907E1, “Suppression of cancer growth and metastasis using nordihydroguaiaretic acid derivatives with metabolic modulators” (THE JOHNS HOPKINS UNIVERSITY, priority 2008, dated 2018).

SMILES strings stand for the structures.

One assay concerns 67NR cells. Kind of assay: 67NR tumor-bearing Balb/c mice (life-span). The conditions noted are these: 5×10^4 cells, M4N 1 mg/shot, Rottlerin 100 μg/shot, three days a week from day 8. The format is in vivo, mouse. As to the method:
Animals: Female Balb/e mice were obtained from Charles River Laboratories (Wilmington, Mass.). M4N and Rottlerin were dissolved into a solvent, CPE (25/30) solvent system supplied by Erimos Pharmaceutical, L.L.C. (Raleigh, N.C.) and injected into mice either intravenously or intraperitoneally, T-cell deficient male nude mice (nu/nu) were obtained from Charles River Laboratories (Wilmington, Mass.). M4N and Ly294002 were dissolved into a solvent, CPE (25/30) solvent system supplied by Erimos Pharmaceutical, L.L.C. (Raleigh, N.C.) and injected into mice intravenously.
Tumor inoculation: Either 4T1 or 67NR cells were grown as described above. Cells growing subconfluently were collected and resuspended into the tissue culture medium minus fetal bovine serum and antibiotics, After counting the number of the cells, the cell concentration was adjusted. Twenty μl of the solution containing a selected number of cancer cells (either 5×10^3 or 5×10^4 cells) was injected into each fat pad of a pair of mammary glands located close to lower limbs. Tumor size was measured by weighing tumors extracted from mouse cadavers.

The test system of another assay is PKCδ. The experiment in a line: Western blotting of total PKCδ and phosphor-PKCδ (Thr505) in 67NR cells. To be noted: 5 hrs, M4N 80 μM, Ro 5 μM, Ly 20 μM, Des 150 μM. The class given is cell-based, mouse. As for the experimental part: The sample volumes were adjusted by the total protein amount. Protein assay was performed by Bio-Rad Protein Assay (Bio-Rad Laboratories, Inc. Hercules, Calif.). The samples were resolved by the standard SDS-polyacrylamide gel electrophoresis and transferred to nitrocellulose membrane (Amersham Biosciences, Bjorkgatan, Sweden). The membranes were blocked with skim milk, and incubated with primary antibodies at 4° C. overnight and then with secondary antibody conjugated with horse radish peroxidase at room temperature for 2 hrs. The signals were detected by western blot chemiluminescence reagent plus (New England Nuclear Life Science Products, Boston, Mass.).
(In general: In western blotting, separated proteins are transferred to a membrane and probed.)

As for `COc1ccc(C[C@@H](C)[C@@H](C)Cc2ccc(OC)c(OC)c2)cc1OC` [M4N, tetra-O-methyl nordihydroguaiaretic acid], in the assay with 67NR cells, the “life-span of 67NR-bearing mice” value was “didn't have much effect on the life-span”. The “amount of phosphorylated PKCδ at Thr505” value in the assay with PKCδ is reported as “induced phosphorylation”.
